Read-outs that look alike come from different tables or passages of the source.
Test system: HCV pseudoparticles (genotype 1a HCV E1 and E2 envelope, H77C isolate)
Assay: microbe, parasite or virus in culture
Assay type: cell-based
Details: Hepatitis C virus, Huh-7, 48 h
[1] = read-out: Activity (EC50 class), HCV pseudoparticle infection of Huh7 cells, luciferase 2 days after infection, EC50 expressed as class A/B
[2] = HCV pseudoparticle infection of Huh7 cells, luciferase 2 days after infection, average of duplicates

Row | Compound | EC50 [1] | EC50 [2]
1 | O=C(NCC[C@H](NC(=O)c1ccc(Nc2nc(NC3(c4ccc(Cl)cc4)CC3)nc(OCC(F)(F)F)n2)cc1)C(=O)O)C(=O)Nc1ccc(F)c(F)c1F [Compound 1509] | 0.01 to 10 nM | 
2 | COC(=O)[C@H](CCNC(=O)C(=O)Nc1cc(F)c(F)cc1F)NC(=O)c1ccc(Nc2nc(NC3(c4ccc(Cl)cc4)CC3)nc(OCC(F)(F)F)n2)cc1 [Compound 1510] | 0.01 to 10 nM | 
3 | O=C(NCC[C@H](NC(=O)c1ccc(Nc2nc(NC3(c4ccc(Cl)cc4)CC3)nc(OCC(F)(F)F)n2)cc1)C(=O)O)C(=O)Nc1cc(F)ccc1F [Compound 1513] | 0.01 to 10 nM | 
4 | O=C(NCC[C@H](NC(=O)c1ccc(Nc2nc(NC3(c4ccc(Cl)cc4)CC3)nc(OCC(F)(F)F)n2)cc1)C(=O)O)C(=O)Nc1cc(F)c(F)cc1F [Compound 1514] | 0.01 to 10 nM | 0.04 nM
5 | COC(=O)[C@H](CCNC(=O)C(=O)Nc1ccc(Cl)cc1)NC(=O)c1ccc(Nc2nc(NC3(c4ccc(Cl)cc4)CC3)nc(OCC(F)(F)F)n2)cc1 [Compound 1515] | 0.01 to 10 nM | 
6 | COC(=O)[C@H](CCNC(=O)C(=O)Nc1ccc(-c2ccncc2)cc1)NC(=O)c1ccc(Nc2nc(NC3(c4ccc(Cl)cc4)CC3)nc(OCC(F)(F)F)n2)cc1 [Compound 1517] | 0.01 to 10 nM | 
7 | COC(=O)[C@H](CCNC(=O)C(=O)Nc1ccc(-c2ccccc2)c(OC)c1)NC(=O)c1ccc(Nc2nc(NC3(c4ccc(Cl)cc4)CC3)nc(OCC(F)(F)F)n2)cc1 [Compound 1518] | 0.01 to 10 nM | 
8 | COc1cc(NC(=O)C(=O)NCC[C@H](NC(=O)c2ccc(Nc3nc(NC4(c5ccc(Cl)cc5)CC4)nc(OCC(F)(F)F)n3)cc2)C(=O)O)ccc1-c1ccccc1 [Compound 1519] | 0.01 to 10 nM | 
9 | COC(=O)[C@H](CCNC(=O)C(=O)Nc1ccc(O)nc1)NC(=O)c1ccc(Nc2nc(NC3(c4ccc(Cl)cc4)CC3)nc(OCC(F)(F)F)n2)cc1 [Compound 1520] | 0.01 to 10 nM | 
10 | COC(=O)[C@H](CCNC(=O)C(=O)Nc1cccc(O)c1)NC(=O)c1ccc(Nc2nc(NC3(c4ccc(Cl)cc4)CC3)nc(OCC(F)(F)F)n2)cc1 [Compound 1521] | 0.01 to 10 nM | 
11 | COC(=O)[C@H](CCNC(=O)C(=O)Nc1cccc(-c2ccccc2)c1)NC(=O)c1ccc(Nc2nc(NC3(c4ccc(Cl)cc4)CC3)nc(OCC(F)(F)F)n2)cc1 [Compound 1522] | 0.01 to 10 nM | 0.1 nM
12 | O=C(NCC[C@H](NC(=O)c1ccc(Nc2nc(NC3(c4ccc(Cl)cc4)CC3)nc(OCC(F)(F)F)n2)cc1)C(=O)O)C(=O)Nc1cccc(-c2ccccc2)c1 [Compound 1523] | 0.01 to 10 nM | 0.26 nM
13 | COC(=O)[C@H](CCNC(=O)C(=O)Nc1ccc(-c2ccccc2)cc1)NC(=O)c1ccc(Nc2nc(NC3(c4ccc(Cl)cc4)CC3)nc(OCC(F)(F)F)n2)cc1 [Compound 1524] | 0.01 to 10 nM | 
14 | O=C(NCC[C@H](NC(=O)c1ccc(Nc2nc(NC3(c4ccc(Cl)cc4)CC3)nc(OCC(F)(F)F)n2)cc1)C(=O)O)C(=O)Nc1ccc(-c2ccncc2)cc1 [Compound 1525] | 0.01 to 10 nM | 
15 | COC(=O)[C@H](CCNC(=O)C(=O)Nc1ccc(O)cc1)NC(=O)c1ccc(Nc2nc(NC3(c4ccc(Cl)cc4)CC3)nc(OCC(F)(F)F)n2)cc1 [Compound 1526] | 0.01 to 10 nM | 
16 | COC(=O)[C@H](CCNC(=O)C(=O)Nc1ccc(-c2ccc(-c3ccccc3)cc2)cc1)NC(=O)c1ccc(Nc2nc(NC3(c4ccc(Cl)cc4)CC3)nc(OCC(F)(F)F)n2)cc1 [Compound 1527] | 0.01 to 10 nM | 0.15 nM
17 | COC(=O)[C@@H](CCNC(=O)C(=O)Nc1ccccc1-c1ccccc1)NC(=O)c1ccc(Nc2nc(NC3(c4ccc(Cl)cc4)CC3)nc(OCC(F)(F)F)n2)cc1 [Compound 1528] | 0.01 to 10 nM | 
18 | COC(=O)[C@@H](CCNC(=O)C(=O)Nc1ccc(-c2noc(C)n2)cc1)NC(=O)c1ccc(Nc2nc(NC3(c4ccc(Cl)cc4)CC3)nc(OCC(F)(F)F)n2)cc1 [Compound 1529] | 0.01 to 10 nM | 
19 | O=C(NCC[C@@H](NC(=O)c1ccc(Nc2nc(NC3(c4ccc(Cl)cc4)CC3)nc(OCC(F)(F)F)n2)cc1)C(=O)O)C(=O)Nc1cccc(F)c1F [Compound 1530] | 0.01 to 10 nM | 

Source: patent publication US8916702B2 (priority 2012, dated 2014)
